Source: publication PMC3045100, “Cell-Penetrating Penta-Peptides (CPP5s): Measurement of Cell Entry and Protein-Transduction Activity” (Pharmaceuticals, 2010)

Tests used:
[1] = system: Primary cultured mouse embryonic fibroblast (MEF) cells; test: Cytotoxicity (apoptosis, Hoechst nuclear staining) of CPP5 and TAT; type: cell-based
Experimental: List of cell-penetrating penta-peptides (CPP5s). […] Peptide sequences are color-coded to show the constant amphipathic amino acid arrangement in each CPP5. […] Fam was labeled on the N-terminus of all peptides examined. Cells were analyzed by FACS and/or microscopy. The activity of each peptide is shown as a percentage of the activity of KLPVM. Each value represents the mean of triplicate samples. Cell entry of some peptides was confirmed by microscopy only, and these peptides are indicated with a '+' without a percentage value. For cytoprotective activity (right column), the information is based on previous studies and the activity was determined by the protection of cells from Bax overexpression and other apoptotic stimuli such as etoposide treatment. b to e. Cell entry of Fam-labeled […], and poly-arginine (R8). […] Comparison of the cytotoxicity of CPP5 and TAT. Primary cultured mouse embryonic fibroblast (MEF) cells were treated with various concentrations of peptides for 24 h as indicated. Then, apoptosis was analyzed as described in Experimental Procedures. Each bar represents the mean of triplicate samples and standard error.

CHO A745 cells = test: Protection from staurosporine-induced apoptosis (Hoechst nuclear staining); type: cell-based, Chinese hamster; conditions: VPTLK 3 h pre-incubation, 100 nM STS for 3 and 6 h, Hoechst dye nuclear staining, triplicate samples
Experimental: (§1) Figure 3 Protection of cells from apoptosis by VPTLK. a-d. Proteoglycan is not required for VPTLK cell entry. Microscopic analysis of cell entry of Fam-VPTLK in Chinese Hamster Ovary (CHO) A745 cells lacking proteoglycans in the plasma membrane (a) and CHO K1 cells that express proteoglycans (b). CHO A745 and K1 cells were incubated with Fam-VPTLK (200 μM) for 3 h at 37 °C. […] Apoptosis was determined by using Hoechst dye nuclear staining. Each bar represents the mean of triplicate samples and standard error, and statistical significance was determined by an unpaired student t test; “ns”: not significant, *P < 0.05, and **P < 0.01. e. […] Jurkat cells were pre-incubated with VPTLK 200 μM for 3 h prior to STS treatment (100 nM, 3 or 6 h). Apoptosis was determined by Hoechst dye nuclear staining. Each bar represents the mean of triplicate samples and standard error, and statistical significance was determined by an unpaired student t test: **P < 0.01. f. […] Apoptosis was determined by Hoechst dye nuclear staining. […]
(§2) To induce Bax-mediated apoptosis in HeLa cells, cells were transfected with pEGFP-Bax (1 µg) and apoptosis was determined 24 h after the transfection. […] To detect apoptosis, cells were stained with Hoechst 33258 dye, and the numbers of cells with apoptotic nuclei were counted using fluorescence microscopy. Three-hundred cells were analyzed in triplicate samples. […]

CHO K1 cells = test: as above; type: cell-based, Chinese hamster; conditions: VPTLK 3 h pre-incubation, 100 nM STS for 3 and 6 h, Hoechst dye nuclear staining, triplicate samples
Experimental: as §1, §2

Jurkat cells = test: as above; type: cell-based; conditions: 200 μM peptide 3 h pre-incubation, STS 100 nM, 3 or 6 h, Hoechst dye nuclear staining, triplicate samples, P < 0.01
Experimental: as §1, §2

HeLa cells = test: Protection from etoposide-induced apoptosis (Hoechst nuclear staining); type: cell-based; conditions: 200 μM peptide 3 h pretreatment, etoposide 10 μM, 24 h, Hoechst dye nuclear staining, triplicate samples, P < 0.01
Experimental: as §1, §2

With VPTLK the “Cytotoxic effect at 1.6 mM in the cell culture medium” value [1] was “did not show significant cytotoxic effects”, the “Protection from staurosporine treatment, CHO A745” value (CHO A745 cells) was “protected both cell lines” and the “Protection from staurosporine treatment, CHO K1” value (CHO K1 cells) was “protected both cell lines”. The “Protection from STS-induced apoptosis, Jurkat” value (Jurkat cells) was “protected Jurkat cells from STS-induced apoptosis” and the “Protection from etoposide-induced apoptosis, HeLa” value (HeLa cells) was “protected HeLa cells from etoposide-induced apoptosis”.
